Tests used:
[1] = biological target: Vasopressin V1a receptor (Homo sapiens, UniProt P37288); type: cell membranes, Membrane; details: hek293; further: in other assays of this panel Not Active means under 50% inhibition at 10 µM
[2] = biological target: T1, Endothelin-1 receptor (Homo sapiens, UniProt P25101); type: cell membranes, Membrane; details: cho-k1; further: in other assays of this panel Not Active means under 50% inhibition at 10 µM
T1 sequence (P25101 whole entry): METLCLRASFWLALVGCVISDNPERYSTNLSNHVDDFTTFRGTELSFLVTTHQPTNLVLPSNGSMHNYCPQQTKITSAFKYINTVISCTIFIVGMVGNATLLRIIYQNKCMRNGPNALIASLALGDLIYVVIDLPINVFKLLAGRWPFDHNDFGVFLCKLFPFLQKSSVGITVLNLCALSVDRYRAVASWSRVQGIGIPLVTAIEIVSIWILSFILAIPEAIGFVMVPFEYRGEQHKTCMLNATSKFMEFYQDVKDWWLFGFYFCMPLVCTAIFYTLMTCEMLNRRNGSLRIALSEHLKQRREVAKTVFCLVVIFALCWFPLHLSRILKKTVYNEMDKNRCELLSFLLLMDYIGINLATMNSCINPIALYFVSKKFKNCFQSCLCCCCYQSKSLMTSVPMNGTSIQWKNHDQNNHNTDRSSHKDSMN

[3] = biological target: T2, Calcitonin receptor (Homo sapiens, UniProt P30988); type: cell membranes, Membrane; details: t47d; further: in other assays of this panel Not Active means under 50% inhibition at 10 µM
T2 sequence (P30988 whole entry): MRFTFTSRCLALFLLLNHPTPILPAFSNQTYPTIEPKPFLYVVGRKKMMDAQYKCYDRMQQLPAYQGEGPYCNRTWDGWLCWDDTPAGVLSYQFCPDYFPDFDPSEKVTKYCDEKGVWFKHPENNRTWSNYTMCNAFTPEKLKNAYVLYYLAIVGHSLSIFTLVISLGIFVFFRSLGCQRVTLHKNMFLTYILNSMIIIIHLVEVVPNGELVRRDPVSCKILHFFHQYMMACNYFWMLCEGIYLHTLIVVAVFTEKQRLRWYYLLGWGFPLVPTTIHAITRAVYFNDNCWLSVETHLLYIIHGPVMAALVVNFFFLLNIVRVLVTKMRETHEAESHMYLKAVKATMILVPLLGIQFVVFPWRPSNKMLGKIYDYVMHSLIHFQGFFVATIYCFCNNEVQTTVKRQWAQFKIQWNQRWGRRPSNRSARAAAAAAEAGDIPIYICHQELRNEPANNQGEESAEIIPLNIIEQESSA

[4] = biological target: T3, Interstitial collagenase (Homo sapiens, UniProt P03956); experiment: biochemical; type: tissue-based, Rheumatoid synovial fibroblasts;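 further: MMP-1 enzyme inhibition assay using a peptide substrate; in other assays of this panel Not Active means under 50% inhibition at 10 µM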
T3 sequence (P03956 whole entry): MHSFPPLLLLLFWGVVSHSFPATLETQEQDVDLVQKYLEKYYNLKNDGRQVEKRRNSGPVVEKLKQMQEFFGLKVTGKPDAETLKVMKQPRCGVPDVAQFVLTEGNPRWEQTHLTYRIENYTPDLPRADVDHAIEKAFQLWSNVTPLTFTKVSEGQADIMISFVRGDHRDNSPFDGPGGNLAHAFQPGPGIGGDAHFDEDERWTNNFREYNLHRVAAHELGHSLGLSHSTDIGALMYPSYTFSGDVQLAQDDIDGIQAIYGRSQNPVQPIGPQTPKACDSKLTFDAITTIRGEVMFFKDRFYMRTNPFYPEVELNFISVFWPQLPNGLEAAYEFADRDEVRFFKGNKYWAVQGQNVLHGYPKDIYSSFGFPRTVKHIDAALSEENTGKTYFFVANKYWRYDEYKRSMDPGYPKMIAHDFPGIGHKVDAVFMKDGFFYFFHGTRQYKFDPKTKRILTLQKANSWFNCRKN

[5] = biological target: T4, Amine oxidase [flavin-containing] A (Homo sapiens, UniProt P21397); experiment: DRUGMATRIX: Monoamine Oxidase MAO-A enzyme inhibition (substrate: Kynuramine); design: species or system BTI-TN-5B1-4; details: bti-tn-5b1-4; Not Active = under 50% inhibition at 10 µM
T4 sequence (P21397 whole entry): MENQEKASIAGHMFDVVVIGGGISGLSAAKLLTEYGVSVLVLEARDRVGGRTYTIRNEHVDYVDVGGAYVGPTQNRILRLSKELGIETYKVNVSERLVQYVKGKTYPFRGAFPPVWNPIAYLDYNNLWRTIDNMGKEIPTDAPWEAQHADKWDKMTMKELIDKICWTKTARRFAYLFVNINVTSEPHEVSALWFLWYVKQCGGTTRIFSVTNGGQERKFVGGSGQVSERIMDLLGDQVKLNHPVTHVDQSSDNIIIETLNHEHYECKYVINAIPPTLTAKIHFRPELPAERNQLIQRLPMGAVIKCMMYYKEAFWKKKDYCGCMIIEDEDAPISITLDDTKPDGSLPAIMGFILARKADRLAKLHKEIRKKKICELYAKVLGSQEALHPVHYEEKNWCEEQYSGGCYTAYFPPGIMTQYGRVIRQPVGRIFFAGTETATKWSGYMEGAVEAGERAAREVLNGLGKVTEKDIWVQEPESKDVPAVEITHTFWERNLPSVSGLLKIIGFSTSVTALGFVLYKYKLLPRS

[6] = biological target: T5, Substance-K receptor (Homo sapiens, UniProt P21452); type: cell membranes, CHO, Membrane; further: in other assays of this panel Not Active means under 50% inhibition at 10 µM
T5 sequence (P21452 whole entry): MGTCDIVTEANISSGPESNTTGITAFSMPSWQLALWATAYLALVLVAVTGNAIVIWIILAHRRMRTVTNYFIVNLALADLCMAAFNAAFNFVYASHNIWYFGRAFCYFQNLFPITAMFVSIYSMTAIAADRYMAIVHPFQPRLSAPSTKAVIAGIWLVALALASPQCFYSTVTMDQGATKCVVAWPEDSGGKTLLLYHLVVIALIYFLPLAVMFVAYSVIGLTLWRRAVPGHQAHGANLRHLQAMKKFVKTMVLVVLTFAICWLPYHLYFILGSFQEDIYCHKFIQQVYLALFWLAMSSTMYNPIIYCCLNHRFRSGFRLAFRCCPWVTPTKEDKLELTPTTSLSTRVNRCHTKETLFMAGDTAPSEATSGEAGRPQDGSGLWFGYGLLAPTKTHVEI

[7] = DRUGMATRIX: Calcium Channel Type L, Phenylalkylamine radioligand binding (ligand: [3H] (-)-Desmethoxyverapamil (D-888)); type: cell membranes, Rattus norvegicus, Wistar, Brain, Membrane; details: Not Active = under 50% inhibition at 10 µM

Vasopressin V1a receptor, sequence (P37288 whole entry): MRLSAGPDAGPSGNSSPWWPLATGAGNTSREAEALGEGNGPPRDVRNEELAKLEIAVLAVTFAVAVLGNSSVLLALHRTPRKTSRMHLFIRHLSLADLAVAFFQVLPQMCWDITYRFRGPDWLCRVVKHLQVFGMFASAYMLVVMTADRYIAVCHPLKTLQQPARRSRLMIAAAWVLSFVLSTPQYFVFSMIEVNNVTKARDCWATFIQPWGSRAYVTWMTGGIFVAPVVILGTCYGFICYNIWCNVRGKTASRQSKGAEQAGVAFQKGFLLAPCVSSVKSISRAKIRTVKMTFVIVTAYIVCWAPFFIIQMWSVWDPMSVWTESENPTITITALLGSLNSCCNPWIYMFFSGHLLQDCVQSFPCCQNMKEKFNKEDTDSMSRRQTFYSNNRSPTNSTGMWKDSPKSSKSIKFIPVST

SMILES | IC50 [1] | IC50 [2] | IC50 [3] | IC50 [4] | IC50 [5] | IC50 ([6]; cho) | IC50 [7] | Ki [7] | IC50 ([7]; read-out: IC50) | Ki ([7]; read-out: Ki) | IC50 ([6]; read-out: IC50) | Ki ([6]; read-out: Ki) | IC50 ([4]; read-out: IC50)
C#C[C@]1(O)CC[C@H]2[C@@H]3[C@H](C)CC4=C(CCC(=O)C4)[C@H]3CC[C@@]21C [TIBOLONE] | Not Active | Not Active | Not Active | Not Active | Not Active | Not Active | Not Active | Not Active | – | – | – | – | –
Cc1nnc(NS(=O)(=O)c2ccc(N)cc2)s1 [SULFAMETHIZOLE] | Not Active | Not Active | Not Active | Not Active | Not Active | Not Active | Not Active | Not Active | – | – | – | – | –
C[C@]12CCC(=O)C[C@@H]1CC[C@@H]1[C@@H]2CC[C@]2(C)[C@@H](O)CC[C@@H]12 [STANOLONE] | Not Active | Not Active | Not Active | Not Active | Not Active | Not Active | Not Active | Not Active | – | – | – | – | –
CO[C@@]12[C@H](COC(N)=O)C3=C(C(=O)C(C)=C(N)C3=O)N1C[C@@H]1N[C@@H]12 [MITOMYCIN] | Not Active | Not Active | Not Active | Not Active | Not Active | Not Active | Not Active | Not Active | – | – | – | – | –
Cc1[nH]c(=O)c(C#N)cc1-c1ccncc1 [MILRINONE] | Not Active | Not Active | Not Active | Not Active | Not Active | Not Active | Not Active | Not Active | – | – | – | – | –
CC(Cl)(Cl)Cl [TRICHLOROETHANE] | Not Active | Not Active | Not Active | Not Active | Not Active | Not Active | Not Active | Not Active | – | – | – | – | –
CC[C@H](C)C(=O)O[C@H]1CCC=C2C=C[C@H](C)[C@H](CC[C@@H]3C[C@@H](O)CC(=O)O3)[C@H]21 [MEVASTATIN] | Not Active | Not Active | Not Active | Not Active | Not Active | Not Active | Not Active | Not Active | – | – | – | – | –
CC(=O)O[C@]1(C(C)=O)CC[C@H]2[C@@H]3C[C@H](C)C4=CC(=O)CC[C@]4(C)[C@H]3CC[C@@]21C [MEDROXYPROGESTERONE ACETATE] | Not Active | Not Active | Not Active | Not Active | Not Active | Not Active | Not Active | Not Active | – | – | – | – | –
CC[C@@]1(O)C(=O)OCc2c1cc1n(c2=O)Cc2cc3c(CN(C)C)c(O)ccc3nc2-1 [TOPOTECAN] | Not Active | Not Active | Not Active | Not Active | Not Active | Not Active | Not Active | Not Active | – | – | – | – | –
CC#C[C@]1(O)CC[C@H]2[C@@H]3CCC4=CC(=O)CCC4=C3[C@@H](c3ccc(N(C)C)cc3)C[C@@]21C [MIFEPRISTONE] | Not Active | Not Active | Not Active | Not Active | Not Active | Not Active | – | – | 16 µM | 15.6 µM | – | – | –
Cc1cnc(NC(=O)C2=C(O)c3ccccc3S(=O)(=O)N2C)s1 [MELOXICAM] | Not Active | Not Active | Not Active | Not Active | Not Active | Not Active | Not Active | Not Active | – | – | – | – | –
O=[As][O-].[Na+] [SODIUM ARSENITE] | Not Active | Not Active | Not Active | Not Active | Not Active | Not Active | Not Active | Not Active | – | – | – | – | –
Cc1cccc(C)c1NC(=O)C(C)N (stereo unspecified) [TOCAINIDE] | Not Active | Not Active | Not Active | Not Active | Not Active | Not Active | Not Active | Not Active | – | – | – | – | –
COC(=O)Nc1nc2ccc(C(=O)c3ccccc3)cc2[nH]1 [MEBENDAZOLE] | Not Active | Not Active | Not Active | Not Active | Not Active | Not Active | Not Active | Not Active | – | – | – | – | –
CCOC(=O)C1=C(C)NC(C)=C(C(=O)OCC)C1c1ccccc1/C=C/C(=O)OC(C)(C)C [LACIDIPINE] | Not Active | Not Active | Not Active | Not Active | Not Active | Not Active | Not Active | Not Active | – | – | – | – | –
CC[C@H](C)[C@@H](CO[C@@H](Cc1ccccc1)C(=O)N[C@@H](CCS(C)(=O)=O)C(=O)OC(C)C)NC[C@@H](N)CS | Not Active | Not Active | Not Active | Not Active | Not Active | – | Not Active | Not Active | – | – | 1.61 µM | 0.536 µM | –
O=C(c1ccccc1)c1ccc2n1CCC2C(=O)O (stereo unspecified) [KETOROLAC] | Not Active | Not Active | Not Active | Not Active | Not Active | Not Active | Not Active | Not Active | – | – | – | – | –
O=C(O)c1cc(/N=N/c2ccc(S(=O)(=O)Nc3ccccn3)cc2)ccc1O [SULFASALAZINE] | Not Active | Not Active | Not Active | – | Not Active | Not Active | Not Active | Not Active | – | – | – | – | 23.5 µM
CC1(C)[C@H](C(=O)O)N2C(=O)C[C@H]2S1(=O)=O [SULBACTAM] | Not Active | Not Active | Not Active | Not Active | Not Active | Not Active | Not Active | Not Active | – | – | – | – | –
C1CCN2C[C@@H]3C[C@@H](CN4CCCC[C@@H]34)[C@H]2C1 [SPARTEINE] | Not Active | Not Active | Not Active | Not Active | Not Active | Not Active | Not Active | Not Active | – | – | – | – | –

Source: ChEMBL document CHEMBL1909046, “DrugMatrix in vitro pharmacology data”
